# Results from patent US11572590B2, “Methods for evaluating tumor cell spheroids using 3D microfluidic cell culture device” (Dana-Farber Cancer Institute, Inc., priority 2017, dated 2023).
# Where two headings read alike, the source gives them in different places.
# Key:
# Assay in all cases: SelectScreen Kinase Profiling, single point inhibition and IC50 for off-target kinases
# Type in all cases: biochemical
# [1] = target: T1, off-target kinases (Homo sapiens, UniProt O14936); details: CASK, LanthaScreen Binding
# T1 sequence (O14936 1-926): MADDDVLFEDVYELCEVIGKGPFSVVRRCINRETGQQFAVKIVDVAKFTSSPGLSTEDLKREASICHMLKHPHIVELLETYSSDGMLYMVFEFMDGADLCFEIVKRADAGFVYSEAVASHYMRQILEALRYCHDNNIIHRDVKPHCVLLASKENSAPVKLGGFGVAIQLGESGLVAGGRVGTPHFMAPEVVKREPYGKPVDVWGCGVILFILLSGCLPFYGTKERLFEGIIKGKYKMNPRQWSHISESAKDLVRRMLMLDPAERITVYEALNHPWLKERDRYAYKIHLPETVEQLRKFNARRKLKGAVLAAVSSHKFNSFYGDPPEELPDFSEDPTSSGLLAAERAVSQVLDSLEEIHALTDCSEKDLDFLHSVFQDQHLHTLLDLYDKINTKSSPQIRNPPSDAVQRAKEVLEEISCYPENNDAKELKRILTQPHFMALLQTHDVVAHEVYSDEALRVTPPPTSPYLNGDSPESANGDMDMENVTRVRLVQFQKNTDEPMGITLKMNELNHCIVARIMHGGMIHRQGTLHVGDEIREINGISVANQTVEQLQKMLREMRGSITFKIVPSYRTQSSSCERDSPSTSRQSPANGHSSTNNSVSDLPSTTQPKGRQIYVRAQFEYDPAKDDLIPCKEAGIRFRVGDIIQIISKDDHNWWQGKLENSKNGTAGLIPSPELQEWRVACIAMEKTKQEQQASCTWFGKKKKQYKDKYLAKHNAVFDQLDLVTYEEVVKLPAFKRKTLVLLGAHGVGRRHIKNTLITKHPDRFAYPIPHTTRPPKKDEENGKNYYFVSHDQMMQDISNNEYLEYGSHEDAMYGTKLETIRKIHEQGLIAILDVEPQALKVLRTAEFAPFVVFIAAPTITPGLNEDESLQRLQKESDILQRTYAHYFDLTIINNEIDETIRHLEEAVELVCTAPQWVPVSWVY
# [2] = target: off-target kinases (Homo sapiens, UniProt O43293); details: DAPK3 (ZIPK), ATP Km app, ZLYTE
# [3] = target: T2, off-target kinases (Homo sapiens, UniProt Q9UBE8); details: NLK, LanthaScreen Binding
# T2 sequence (Q9UBE8 1-527): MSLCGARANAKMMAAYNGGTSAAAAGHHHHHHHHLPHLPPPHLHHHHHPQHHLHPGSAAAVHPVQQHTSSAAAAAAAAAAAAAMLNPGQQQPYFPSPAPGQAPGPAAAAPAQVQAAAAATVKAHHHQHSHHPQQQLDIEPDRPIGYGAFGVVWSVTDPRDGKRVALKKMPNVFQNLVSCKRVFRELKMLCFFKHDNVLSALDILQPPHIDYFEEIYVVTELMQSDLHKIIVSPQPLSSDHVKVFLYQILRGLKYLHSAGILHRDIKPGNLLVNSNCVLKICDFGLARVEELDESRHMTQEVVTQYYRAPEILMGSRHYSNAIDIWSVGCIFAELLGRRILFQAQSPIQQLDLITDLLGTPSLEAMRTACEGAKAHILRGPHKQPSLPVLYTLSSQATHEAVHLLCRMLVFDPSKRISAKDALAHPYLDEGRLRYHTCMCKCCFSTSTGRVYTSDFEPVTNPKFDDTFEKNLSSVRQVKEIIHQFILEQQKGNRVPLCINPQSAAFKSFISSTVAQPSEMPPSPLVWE
# off-target kinases (Homo sapiens, UniProt O43293), sequence (O43293 whole entry): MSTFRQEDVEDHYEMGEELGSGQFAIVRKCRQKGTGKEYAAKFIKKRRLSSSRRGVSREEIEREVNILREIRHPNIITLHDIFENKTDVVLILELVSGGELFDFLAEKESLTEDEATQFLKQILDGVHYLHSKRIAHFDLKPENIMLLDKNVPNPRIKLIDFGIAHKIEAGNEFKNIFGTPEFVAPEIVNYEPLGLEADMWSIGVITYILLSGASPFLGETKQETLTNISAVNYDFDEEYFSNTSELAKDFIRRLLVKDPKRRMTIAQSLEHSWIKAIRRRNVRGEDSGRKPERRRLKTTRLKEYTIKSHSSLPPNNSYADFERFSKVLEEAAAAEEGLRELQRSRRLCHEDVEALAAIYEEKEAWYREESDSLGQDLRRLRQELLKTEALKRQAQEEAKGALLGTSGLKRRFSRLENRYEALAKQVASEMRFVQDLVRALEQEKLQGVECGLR
compound,measurement,setting,value
"N#Cc1cc(-c2ncnc(Nc3ccc(N4CCN(C5COC5)CC4)cc3)n2)ccc1OC1CCOCC1 [Compound 1, 5-(4-((4-(4-(oxetan-3-yl)piperazin-1-yl)phenyl)amino)-1,3,5-triazin-2-yl)-2-((tetrahydro-2H-pyran-4-yl)oxy)benzonitrile]",inhibition,[1]; read-out: % Inhibition 1,6%
same,inhibition,[1]; read-out: % Inhibition 2,10%
same,inhibition,[1]; read-out: % Inhibition Avg,8%
same,inhibition,[2]; read-out: % Inhibition 1,52%
same,inhibition,[2]; read-out: % Inhibition 2,49%
same,inhibition,[2]; read-out: % Inhibition Avg,51%
same,inhibition,[3]; read-out: % Inhibition 1,26%
same,inhibition,[3]; read-out: % Inhibition 2,29%
same,inhibition,[3]; read-out: % Inhibition Avg,28%
